# According to PubChem BioAssay (NCI):
# Several values for one entry are separate records, joined by “and”; a condition that tells them apart may be missing. Equal values may be shown once.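 96-well plates; 48 h exposure; 5 concentrations. Endpoints by linear interpolation between flanking doses. Not reached: highest tested concentration assigned. GI50 is the concentration that inhibits growth by half. The concentration for full growth arrest is given as TGI.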
# Columns and labels:
# Experiment in all cases: growth of human tumour cells (NCI), 48 h
# 786-0 renal = test system: 786-0 renal
# SW-620 colon = test system: SW-620 colon
# SF-268 CNS = test system: SF-268 CNS
# K-562 leukemia = test system: K-562 leukemia
# HCC-2998 colon = test system: HCC-2998 colon
# MOLT-4 leukemia = test system: MOLT-4 leukemia
# OVCAR-8 ovarian = test system: OVCAR-8 ovarian
# M14 melanoma = test system: M14 melanoma
# UACC-62 melanoma = test system: UACC-62 melanoma
# KM12 colon = test system: KM12 colon
SMILES,TGI (786-0 renal),TGI (SW-620 colon),TGI (SF-268 CNS),TGI (K-562 leukemia),TGI (HCC-2998 colon),TGI (MOLT-4 leukemia),TGI (OVCAR-8 ovarian),TGI (M14 melanoma),TGI (UACC-62 melanoma),TGI (KM12 colon),GI50 (786-0 renal),GI50 (SW-620 colon),GI50 (SF-268 CNS),GI50 (K-562 leukemia),GI50 (HCC-2998 colon),GI50 (MOLT-4 leukemia),GI50 (OVCAR-8 ovarian),GI50 (M14 melanoma),GI50 (UACC-62 melanoma),GI50 (KM12 colon)
CCOC(=O)NC/C=C/CO,> 100 µM,> 100 µM,> 100 µM,> 100 µM,> 100 µM,> 100 µM,> 100 µM,> 100 µM,> 100 µM,> 100 µM,–,–,–,–,–,–,–,–,–,–
COc1cc(-c2nn(-c3cccc(NC(=O)c4cccc(C(F)(F)F)c4)c3)cc2-c2ccncc2)ccc1Cl,> 50 µM,> 50 µM,> 50 µM,> 50 µM,17.6 µM,> 50 µM,> 50 µM,> 50 µM,> 50 µM,> 50 µM,2450 nM,2310 nM,2130 nM,1.4 µM,2240 nM,2010 nM,2000 nM,1630 nM,1940 nM,1660 nM
O=C(/C=C/c1ccc(OCC(=O)N2CCN(c3ccccc3)CC2)cc1)c1ccccc1,> 57.9 µM,> 28.4 µM,> 89.4 µM,> 43 µM,> 72.4 µM,> 25.2 µM,> 67.5 µM,> 100 µM,> 59.7 µM,> 75 µM,–,–,–,–,–,–,–,–,–,–
COC(=O)/C(=C/c1ccc(OC)cc1)c1cc(OC)c(OC)c(OC)c1,> 86 µM,> 100 µM,> 79.1 µM,> 58.4 µM,> 59 µM,> 97.5 µM,> 100 µM,> 96.3 µM,37.4 µM,71 µM,–,–,–,–,–,–,–,–,–,–
Cc1c2cc[n+](C)cc2c(C)c2c1[nH]c1ccc(Oc3ccccc3)cc12,> 64.3 µM,> 37.9 µM and 40.6 µM,14.7 µM and > 19.9 µM,> 24 µM,> 47.9 µM and 39.6 µM,> 43.7 µM and 12.7 µM,> 100 µM,> 61.5 µM and 40.1 µM,7.5 µM and 7.54 µM,18.8 µM and > 100 µM,–,–,–,–,–,–,–,–,–,–
COc1cc2c(cc1OCCCN1CCN(CCCn3c4ccccc4c4ccccc43)CC1)N=C[C@@H]1CCCN1C2=O,1.01 µM,0.141 µM,0.289 µM,–,0.37 µM,0.257 µM,1.55 µM,0.656 µM,0.347 µM,0.578 µM,280 nM,25.4 nM,36.2 nM,–,120 nM,44 nM,273 nM,211 nM,162 nM,157 nM
COc1cccc(OC)c1/C=N\N1C(=O)c2ccccc2C1=O,> 100 µM,> 100 µM,> 100 µM,> 100 µM,91.9 µM,> 100 µM,89.3 µM,58.2 µM,> 100 µM,> 100 µM,–,–,–,–,–,–,–,–,–,–
O=C(Nc1cccc(C(F)(F)F)c1)Nc1ccc(OCc2nnc(-c3ccccc3)o2)c(F)c1,22.4 µM,> 100 µM,78.2 µM,47.2 µM,59.8 µM,39.8 µM,32.1 µM,62.8 µM,24.6 µM,12.8 µM,6180 nM,4080 nM,12300 nM,5.12 µM,6400 nM,3590 nM,5190 nM,7180 nM,4100 nM,2430 nM
